Assay results taken from ChEMBL document CHEMBL1671770, “Small molecule inhibition of protein depalmitoylation as a new approach towards downregulation of oncogenic Ras signalling” (Bioorg Med Chem, 2011).

Target: Acyl-protein thioesterase 1 (Homo sapiens, UniProt O75608)
Test: Inhibition of APT1

Sequence of Acyl-protein thioesterase 1 (O75608 whole entry): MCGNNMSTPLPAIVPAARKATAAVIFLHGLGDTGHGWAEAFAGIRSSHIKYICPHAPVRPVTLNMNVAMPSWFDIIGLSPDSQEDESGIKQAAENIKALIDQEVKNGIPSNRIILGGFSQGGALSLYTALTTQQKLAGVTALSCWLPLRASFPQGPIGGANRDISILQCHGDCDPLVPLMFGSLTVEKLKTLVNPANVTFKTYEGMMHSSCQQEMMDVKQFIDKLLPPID

- IC50: 670 nM
Structure (SMILES): CCCCCCCCCC[C@@H]1C(=O)O[C@H]1CCc1ccc(OC)c(OC)c1 [PALMOSTATIN B]
